Reference: US9180164B2, “Compounds and methods of modulating angiogenesis” (THE CLEVELAND CLINIC FOUNDATION, priority 2011, dated 2015)

Assays:
[1] = system: αvβ3 integrin; assay: WOW-1 binding assay, mouse lung endothelial cells; assay type: cell-based; settings: DiYF EC; 20 ng/ml VEGF or 1 mM MnCl2
Method: (§1) Wild type and DiYF mouse lung endothelial cells were serum starved for 4 h and further stimulated with 20 ng/ml VEGF-165, 20 ng/ml b-FGF or 1 mm MnC12 separately. WoW-1 Fab was added at a final concentration of […], followed by addition of Fluorescein isothiocyanate (FITC) conjugated goat anti-mouse IgG at 10 μg/ml. After 30 min cells were fixed with 3.7% formaldehyde/PBS for 15 min, washed twice with 1×PBS and FACS was performed using a FACS Calibur (Becton Dickinson, San Jose, Calif.) instrument and data were analyzed using CellQuest software program.

[2] = molecular target: T1, αvβ3 integrin (Mus musculus, UniProt O54890+P43406); assay: WOW-1 binding assay, mouse lung endothelial cells; assay type: cell-based; settings: WT EC; 20 ng/ml VEGF or 1 mM MnCl2
T1 construct: endogenous in cells; host or cells: primary mouse lung endothelial cells
T1 sequence (O54890 26-787): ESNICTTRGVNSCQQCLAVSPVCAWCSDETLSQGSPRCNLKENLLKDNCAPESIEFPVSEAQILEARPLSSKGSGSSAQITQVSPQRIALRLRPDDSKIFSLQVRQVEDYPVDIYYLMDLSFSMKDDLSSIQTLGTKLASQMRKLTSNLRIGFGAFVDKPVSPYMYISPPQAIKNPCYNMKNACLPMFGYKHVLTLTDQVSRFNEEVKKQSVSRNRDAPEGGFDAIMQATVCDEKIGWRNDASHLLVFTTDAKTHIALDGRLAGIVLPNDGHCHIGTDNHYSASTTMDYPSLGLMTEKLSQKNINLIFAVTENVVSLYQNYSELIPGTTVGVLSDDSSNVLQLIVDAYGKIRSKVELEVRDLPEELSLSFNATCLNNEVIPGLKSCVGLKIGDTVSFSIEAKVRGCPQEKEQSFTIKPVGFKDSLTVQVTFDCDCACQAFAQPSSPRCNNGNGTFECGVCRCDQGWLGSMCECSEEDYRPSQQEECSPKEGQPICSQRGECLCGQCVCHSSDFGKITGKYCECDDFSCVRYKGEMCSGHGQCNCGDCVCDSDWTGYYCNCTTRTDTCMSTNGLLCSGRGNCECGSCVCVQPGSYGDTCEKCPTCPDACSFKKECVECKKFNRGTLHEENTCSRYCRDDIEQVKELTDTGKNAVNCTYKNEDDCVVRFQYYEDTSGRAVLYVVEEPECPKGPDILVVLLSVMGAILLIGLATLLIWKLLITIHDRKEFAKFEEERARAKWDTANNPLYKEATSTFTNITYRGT
T1 sequence (P43406 31-885 limits assumed): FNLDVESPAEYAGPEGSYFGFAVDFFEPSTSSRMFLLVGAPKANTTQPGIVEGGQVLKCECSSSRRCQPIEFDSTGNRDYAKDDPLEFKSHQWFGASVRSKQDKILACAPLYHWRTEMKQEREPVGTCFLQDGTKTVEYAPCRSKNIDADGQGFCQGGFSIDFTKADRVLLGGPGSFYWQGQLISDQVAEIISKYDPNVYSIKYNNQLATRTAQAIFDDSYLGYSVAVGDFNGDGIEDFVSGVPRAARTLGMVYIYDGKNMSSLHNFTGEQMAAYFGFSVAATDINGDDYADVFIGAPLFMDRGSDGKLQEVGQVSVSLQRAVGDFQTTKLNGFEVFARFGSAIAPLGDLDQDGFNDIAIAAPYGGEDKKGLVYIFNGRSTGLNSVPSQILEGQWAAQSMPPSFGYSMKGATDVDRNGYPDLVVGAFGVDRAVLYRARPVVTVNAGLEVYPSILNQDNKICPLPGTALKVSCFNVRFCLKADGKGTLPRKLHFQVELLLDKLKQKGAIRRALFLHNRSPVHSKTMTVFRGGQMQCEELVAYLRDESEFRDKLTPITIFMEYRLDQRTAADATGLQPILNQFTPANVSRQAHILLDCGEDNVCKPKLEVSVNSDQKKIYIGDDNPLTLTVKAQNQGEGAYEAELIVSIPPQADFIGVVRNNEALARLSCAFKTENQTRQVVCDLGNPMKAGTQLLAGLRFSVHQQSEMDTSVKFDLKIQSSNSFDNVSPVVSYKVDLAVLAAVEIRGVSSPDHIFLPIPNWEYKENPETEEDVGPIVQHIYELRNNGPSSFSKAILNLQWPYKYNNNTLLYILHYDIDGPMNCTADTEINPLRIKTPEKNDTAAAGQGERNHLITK
T1 sequence (P43406 887-1044 limits assumed): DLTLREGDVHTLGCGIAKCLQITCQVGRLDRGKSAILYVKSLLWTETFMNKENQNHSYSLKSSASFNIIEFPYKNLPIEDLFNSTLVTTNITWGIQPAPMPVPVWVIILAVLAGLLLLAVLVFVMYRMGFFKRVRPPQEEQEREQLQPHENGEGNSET
Method: as §1

[3] = molecular target: T2, VEGFR-2 (Mus musculus, UniProt P35918); assay: VEGFR-2 phosphorylation time course in mouse lung endothelial cells; assay type: cell-based; settings: 20 ng/ml VEGF
T2 construct: endogenous in cells; host or cells: primary mouse lung endothelial cells (WT and DiYF mice)
T2 sequence (P35918 20-1345): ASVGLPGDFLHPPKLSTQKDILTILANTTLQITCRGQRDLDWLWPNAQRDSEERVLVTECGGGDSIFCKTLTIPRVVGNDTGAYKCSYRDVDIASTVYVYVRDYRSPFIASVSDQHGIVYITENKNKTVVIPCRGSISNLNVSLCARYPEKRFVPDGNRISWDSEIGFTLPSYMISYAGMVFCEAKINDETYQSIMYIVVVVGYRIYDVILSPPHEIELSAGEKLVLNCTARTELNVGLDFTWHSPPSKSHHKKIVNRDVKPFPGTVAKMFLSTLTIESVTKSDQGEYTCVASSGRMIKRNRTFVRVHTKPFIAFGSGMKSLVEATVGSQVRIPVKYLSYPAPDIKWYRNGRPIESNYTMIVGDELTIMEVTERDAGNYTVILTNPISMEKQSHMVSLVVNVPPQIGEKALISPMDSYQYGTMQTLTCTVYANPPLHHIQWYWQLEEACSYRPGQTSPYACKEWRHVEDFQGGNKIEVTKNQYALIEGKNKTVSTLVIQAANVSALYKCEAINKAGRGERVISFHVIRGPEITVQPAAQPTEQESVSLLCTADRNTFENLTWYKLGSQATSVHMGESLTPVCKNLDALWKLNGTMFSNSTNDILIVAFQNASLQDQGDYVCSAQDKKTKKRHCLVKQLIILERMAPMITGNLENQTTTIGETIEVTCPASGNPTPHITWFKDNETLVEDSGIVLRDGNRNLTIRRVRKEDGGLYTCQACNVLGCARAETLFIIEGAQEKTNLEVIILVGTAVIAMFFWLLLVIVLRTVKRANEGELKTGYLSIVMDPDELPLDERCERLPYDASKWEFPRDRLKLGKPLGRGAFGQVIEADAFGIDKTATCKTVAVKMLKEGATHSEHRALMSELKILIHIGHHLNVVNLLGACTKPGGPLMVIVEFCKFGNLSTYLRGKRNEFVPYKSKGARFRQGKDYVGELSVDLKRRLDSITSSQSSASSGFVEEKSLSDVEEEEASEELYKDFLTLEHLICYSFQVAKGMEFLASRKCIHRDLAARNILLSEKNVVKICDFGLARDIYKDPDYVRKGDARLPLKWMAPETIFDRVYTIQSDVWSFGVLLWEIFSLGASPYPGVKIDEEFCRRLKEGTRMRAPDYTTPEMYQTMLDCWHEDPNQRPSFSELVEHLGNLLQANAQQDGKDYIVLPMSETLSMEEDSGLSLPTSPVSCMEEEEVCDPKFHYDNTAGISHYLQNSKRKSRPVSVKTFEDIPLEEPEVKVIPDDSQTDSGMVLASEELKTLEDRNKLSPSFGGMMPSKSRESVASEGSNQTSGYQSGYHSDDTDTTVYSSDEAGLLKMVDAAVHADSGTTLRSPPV
Method: Serum starved wild type and DiYF endothelial cells were also treated with 20 ng/ml VEGF for 0-60 mins. Cell lysates were analyzed by Western blot using anti-integrin β3 [pY^747], anti-integrin [pY^759], anti-p-VEGFR-2, anti-VEGFR-2, anti-p-ERK1/2, anti-ERK1/2, anti-p-Akt, anti-Akt, anti-p-P38MAPK and anti-MAPK antibody. The wild type and DiYF endothelial cells were lysed and equal proteins from total cell lysates were subjected SDS-PAGS and analyzed by western blot using anti-VEGFR-2 and anti-CD-31 antibody.

[4] = system: αvβ3 integrin; assay: WOW-1 binding assay, HUVECs; assay type: cell-based, Human; settings: FACS analysis
Method: Semiconfluent HUVECs were serum starved for 4 h and further stimulated with 20 ng/mL VEGF-A165 or VEGFDΔNΔC. WOW-1 Fab was added to a final concentration of 30 μg/mL, followed by addition of FITC-conjugated goat anti-mouse IgG at 10 μg/mL. After 30 min cells were fixed with 3.7% formaldehyde in PBS for 15 min, washed twice with PBS, and fluorescence-activated cell sorting (FACS) was performed using a FACS Calibur (Becton Dickinson, San Jose, Calif.) and data were analyzed using CellQuest software.

Substance: VEGF
- increase in WOW-1 binding [1]: 3.5 fold
- increase in WOW-1 binding [2]: 9 fold
- maximum increase in VEGFR-2 phosphorylation over control ([3]; DiYF EC): 2.5 fold
- maximum increase in VEGFR-2 phosphorylation over control ([3]; WT EC): 6 fold
- increase of WOW-1 binding to EC compared to resting cells [4]: 6 fold
